Values after ≈ are worked out from the molar mass of the structure shown. Read-outs that look alike come from different tables or passages of the source.
Key:
[1] = Kinematic viscosity measurement of solvents; assay type: physicochemical; details: 25 ° C.
[2] = Solubility of antineoplastic drugs in biocompatible pharmaceutical solvents
physchem = details: dehydrated ethanol, 25 °C, organic solvent or mixture
[3] = cited from earlier work
[4] = test system: subcutaneous transplantation of tumors; details: for Survival of group after drug administration (mice alive): 11 mice at day 0;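 for all read-outs here: nude mice carrying subcutaneous right axillary tumor cell grafts, tumor volume computed as ab^2/2, negative control given blank solvent intratumorally, animals checked daily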
Description: After three generations of resuscitation, cells in logarithmic growth phase were digested and suspended in complete medium. The number of cells was calculated, with the number of cells expected to be over 3×10^7/ml. The right axillary part of nude mice was disinfected by alcohol. The cell suspension was injected subcutaneously with a dose of 0.15 ml. After injection, a round translucent liquid bubble bulged up. The state of the nude mice and the growth of tumors were observed every day after injection. […] The successful nude mice were randomly divided into four groups: 11 in the positive control group, 11 in the high dose group, 11 in the low dose group and 12 in the negative control group. After grouping, intravenous injection was administered in the positive control group, with the other groups administered different tested product or blank solvent by intratumoral injection.
The longest diameter a (mm) and the shortest diameter b (mm) of tumors were measured by electronic Vernier caliper. The tumor volume of nude mice was calculated by formula: TV=ab^2/2, and the relative tumor volume (RTV) was acquired as RTV=V t/Vo. Vo was the volume of tumors before injection and V t was used to measure the volume of tumors some days after first injection. […] The mice were killed 21 days after injection for ethical reasons.

[5] = Medium Chain Triglycerides, 25 °C, oil or lipid
[6] = N-N dimethylacetylamide, 25 °C, organic solvent or mixture
[7] = PEG-400, 25 °C, organic solvent or mixture
[8] = PEG-400, 110 °C, organic solvent or mixture
[9] = Tween-80, 25 °C, organic solvent or mixture
[10] = glycerin, 25 °C, organic solvent or mixture
[11] = soybean oil, 25 °C, oil or lipid
[12] = PEG-300, 25 °C, organic solvent or mixture

CCO [Dehydrated ethanol]
Kinematic viscosity measurement [1]: 1.41 mm^2/s

CC(=O)O[C@@]12CO[C@@H]1C[C@H](O)[C@@]1(C)C(=O)[C@H](O)C3=C(C)[C@@H](OC(=O)[C@H](O)[C@@H](NC(=O)OC(C)(C)C)c4ccccc4)C[C@@](O)([C@@H](OC(=O)c4ccccc4)[C@H]21)C3(C)C [Docetaxel]
solubility [2, 5]: < 10000 µg/mL | solubility ([2]; Medium Chain Triglycerides, 105 °C, oil or lipid): 30000 to 35000 µg/mL (≈ 37.1 to 43.3 mM) | solubility [2, 6]: > 50000 µg/mL | solubility [2, 7]: < 10000 µg/mL | solubility [2, 8]: > 40000 µg/mL | solubility [2, 9]: < 40000 µg/mL | solubility ([2]; Tween-80, 120 °C, organic solvent or mixture): > 40000 µg/mL | solubility [2, 10]: < 1000 µg/mL | solubility [2, 11]: < 10000 µg/mL | solubility ([2]; soybean oil, 140 °C, oil or lipid): 12500 to 15000 µg/mL (≈ 15.5 to 18.6 mM) | solubility (physchem): 118000 to 126000 µg/mL (≈ 147 to 156 mM)

OCC(O)CO [Glycerol]
Kinematic viscosity measurement [1]: 908.8 mm^2/s

CC[C@@]1(O)C(=O)OCc2c1cc1n(c2=O)Cc2cc3cc(O)ccc3nc2-1 [Hydroxycamptothecine]
solubility [2, 5]: < 1000 µg/mL | solubility [2, 6]: ~71400 µg/mL (≈ 196 mM) | solubility [2, 12]: < 10000 µg/mL | solubility ([2]; PEG-300, 90 °C, organic solvent or mixture): > 10000 µg/mL | solubility [2, 9]: < 1000 µg/mL | solubility [2, 10]: < 1000 µg/mL | solubility (physchem): < 1000 µg/mL

CC(=O)O[C@H]1C(=O)[C@@]2(C)[C@H]([C@H](OC(=O)c3ccccc3)[C@]3(O)C[C@H](OC(=O)[C@H](O)[C@@H](NC(=O)c4ccccc4)c4ccccc4)C(C)=C1C3(C)C)[C@]1(OC(C)=O)CO[C@@H]1C[C@@H]2O [Paclitaxel]
solubility [2, 5]: < 6000 µg/mL | solubility ([2]; Medium Chain Triglycerides, 120 °C, oil or lipid): > 6000 µg/mL | solubility [2, 6]: > 50000 µg/mL | solubility [2, 7]: < 40000 µg/mL | solubility [2, 8]: > 40000 µg/mL | solubility [2, 9]: < 6000 µg/mL | solubility ([2]; Tween-80, 110 °C, organic solvent or mixture): > 6000 µg/mL | solubility [2, 10]: < 1000 µg/mL | solubility [2, 11]: < 6000 µg/mL | solubility ([2]; soybean oil, 145 °C, oil or lipid): > 6000 µg/mL | solubility (physchem): > 6000 µg/mL | intravenous LD50 ([3]; mice): 12 mg/kg

COc1cc([C@@H]2c3cc4c(cc3[C@@H](O[C@@H]3O[C@@H]5CO[C@@H](c6cccs6)O[C@H]5[C@H](O)[C@H]3O)[C@H]3COC(=O)[C@H]23)OCO4)cc(OC)c1O [Teniposide]
solubility [2, 5]: < 200 µg/mL | solubility ([2]; Medium Chain Triglycerides, 200 °C, oil or lipid): < 200 µg/mL | solubility [2, 6]: > 105000 µg/mL | solubility [2, 12]: < 10000 µg/mL | solubility ([2]; PEG-300, 140 °C, organic solvent or mixture): > 50000 µg/mL | solubility [2, 9]: < 1700 µg/mL | solubility [2, 10]: < 1000 µg/mL | solubility (physchem): < 130 µg/mL

COc1cc([C@@H]2c3cc4c(cc3[C@@H](O[C@@H]3O[C@@H]5CO[C@@H](C)O[C@H]5[C@H](O)[C@H]3O)[C@H]3COC(=O)[C@H]23)OCO4)cc(OC)c1O [etoposide]
30% ST, LDG/PCG ([4]; 30% survival time, low dose group (intratumoral) to positive control group (intravenous)): 200% (18/9 = 2) | Average Tumor Volume V3 ([4]; High dosage (intratumoral, 55 mg/kg), 3 days after first injection): 268.5 mm^3 | Average Tumor Volume V6 ([4]; High dosage (intratumoral, 55 mg/kg), 6 days after first injection): 364.2 mm^3 | HV6/NV6, tumor volume relative to negative control ([4]; High dosage (intratumoral, 55 mg/kg), 6 days after injection): HV6/NV6 = 90.2% | Average Tumor Volume V9 ([4]; High dosage (intratumoral, 55 mg/kg), 9 days after first injection): 472.5 mm^3 | Average Tumor Volume V11 ([4]; High dosage (intratumoral, 55 mg/kg), 11 days after first injection): 384.0 mm^3 | Average Tumor Volume V12 ([4]; High dosage (intratumoral, 55 mg/kg), 12 days after first injection): 276.3 mm^3 | HV12/NV, tumor volume relative to negative control ([4]; High dosage (intratumoral, 55 mg/kg), 12 days after injection): HV12/NV = 38.0% | Average Tumor Volume V0 ([4]; High dosage (intratumoral, 55 mg/kg), before injection): 174.4 mm^3 | Survival of group after drug administration (mice alive) ([4]; High dosage intratumoral, Day 6): 11 | Survival of group after drug administration (mice alive) ([4]; High dosage intratumoral, Day 9): 11 | Survival of group after drug administration (mice alive) ([4]; High dosage intratumoral, Day 11): 11 | Survival of group after drug administration (mice alive) ([4]; High dosage intratumoral, Day 12): 2 | Survival of group after drug administration (mice alive) ([4]; High dosage intratumoral, Day 15): 0 | Survival of group after drug administration (mice alive) ([4]; IV. group, Day 6): 11 | Survival of group after drug administration (mice alive) ([4]; IV. group, Day 9): 9 | Survival of group after drug administration (mice alive) ([4]; IV. group, Day 11): 2 | Survival of group after drug administration (mice alive) ([4]; IV. group, Day 12): 0 | Survival of group after drug administration (mice alive) ([4]; Low dosage intratumoral, Day 6): 11 | Survival of group after drug administration (mice alive) ([4]; Low dosage intratumoral, Day 9): 11 | Survival of group after drug administration (mice alive) ([4]; Low dosage intratumoral, Day 11): 11 | Survival of group after drug administration (mice alive) ([4]; Low dosage intratumoral, Day 12): 11 | Survival of group after drug administration (mice alive) ([4]; Low dosage intratumoral, Day 15): 6 | Survival of group after drug administration (mice alive) ([4]; Low dosage intratumoral, Day 18): 4 | Survival of group after drug administration (mice alive) ([4]; Low dosage intratumoral, Day 19): 3 | Survival of group after drug administration (mice alive) ([4]; Low dosage intratumoral, Day 20): 3 | MST ([4]; intravenous group (positive control)): 9 days | outcome of local intratumor injection, in words ([4]; low dosage group): superior to the intravenous injection and the negative control group | mice surviving ([4]; low dosage group (11 mice), 20 days after injection): three | mice still alive ([4]; low dosage group (11 mice), 21 days after first injection): three | MST ([4]; low dosage group, intratumoral injection): 15 days | MST, HDG/PCG ([4]; median survival time, high dose group (intratumoral) to positive control group (intravenous)): 122% (11/9 = 1.22) | LV12/NV (tumor volume, low dose group to negative control group) ([4]; twelve (12) days after injection, intratumoral injection, low dose group): 49.3% | Intravenous LD50 of the mice [3]: Intravenous LD50 of the mice: 15 mg/kg
